Consider one substance from paper PMC5870190, “A three-in-one-bullet for oesophageal cancer: replication fork collapse, spindle attachment failure and enhanced radiosensitivity generated by a ruthenium(II) metallo-intercalator” (Chemical Science, 2017).

Series [1] relates to OE21 cells. The series can be described thus: Western blotting of DNA damage response (DDR) markers. The series is classed as cell-based, human. Conditions: OE21, 24 h treatment. How it is done: phototoxic contribution to bio-activity. Doxorubicin (Sigma) was prepared in doubly-distilled water (10 mg/mL, 17.4 mM).
[Ru(phen)2(dppz)]2+ (2 mM) was prepared in doubly-distilled water. […]
Western blotting. Treated samples were washed with cold PBS and lysed in RIPA (radioimmunoprecipitation assay) buffer containing protease inhibitors (10 μg/mL leupeptin, 2 μg/mL pepstatin, 50 μg/mL antipain, 2 μg/mL aprotinin, 20 μg/mL chyprostatin, 2 μg/mL benzamidine, 1 mM phenylmethanesulfonyl fluoride) and phosphatase inhibitors (50 mM NaF, 1 mM Na3VO4 and 20 mM β-glycerophosphate). Protein content was determined by BCA assay. Aliquots of cell lysates (10-50 μg total protein) were prepared in standard Laemmli buffer, heated at 95 °C for 5 minutes and resolved by NuPAGE® 4–12% Bis-Tris gels and LDS-PAGE. Gels were transferred onto nitrocellulose membrane and probed with primary antibodies in 5% BSA (bovine serum albumin) solutions at the following dilutions: 1/1000 dilution for majority of Cell Signaling antibodies and γH2AX. 1/500 for anti-p-ATR and anti-cleaved caspase 3. 1/200 anti-Chk1. 1/5000-1/10,000 anti- α-tubulin or β-actin.
Reactions were visualised with a suitable secondary antibody conjugated with horseradish peroxidase (1/5000 dilution, Thermo). […]

The test system of series [2] is FLO-1 human oesophageal adenocarcinoma. Briefly: MTT assay, FLO-1 cells. It is filed as cell-based. The procedure:
(§1) MTT assay. OE21, FLO-1 or hSAEC1-KT cells were seeded in 96 well plates at 20,000 cells/well (for 24 h treatment) or 10,000 cells/well (for 72 h treatment) and allowed to adhere for 24 h before treatment. OE33 cells were seeded in 48 well plates at 40,000 cells/well (24 h treatment) or 20,000 cells/well (72 h treatment). Cancer cell lines were treated with chemicals dissolved in RPMI media for consistency. After incubation, 0.5 mg/ml MTT (thiazolyl blue tetrazolium bromide) dissolved in serum-free medium was added for 60 minutes and the formazan product eluted using acidified isopropanol.
(§2) The absorbance at 540 nm was quantified by plate reader (reference wavelength 650 nm). The metabolic activity of the cell population was determined as a percentage of a negative (solvent) control. […]
(§3) For the determination of mutation induction, from the untreated and each treated condition, 2x10^5 cells were plated in 10 x 100 mm dishes in selective media (regular media

The conditions of series [3]: cited from earlier work.
Series [4] relates to OE21 human oesophageal squamous cell carcinoma. Briefly: MTT assay, OE21 cells. Conditions: MTT. It is filed as cell-based. How it is done:
as §1, §2, §3

The subject of series [5] is OE33 human oesophageal adenocarcinoma. Briefly: MTT assay, OE33 cells. The series is classed as cell-based. How it is done: as §1, §2, §3

In the case of [Ru(phen)2(dppz)]^2+, the “DDR activation (γH2AX immunoblotting)” value in series [1] is on record as “no evidence of DDR activation”. Besides, the IC50 was over 100 µM in series [2] (FLO1, 24 h constant exposure); 34 ± 5.7 µM in series [2] (FLO1, 72 h constant exposure); over 100 µM in series [4] (OE21, 24 h constant exposure); over 100 µM in series [4] (OE21, 72 h constant exposure); over 100 µM in series [5] (OE33, 24 h constant exposure); over 100 µM in series [5] (OE33, 72 h constant exposure). Moreover, the “log P” value in series [3] was “–1.48”.
